Measured values published in patent US20050089524A1, “Compositions and compounds for use as molecular adjuvant for a nicotine vaccine” (priority 2002, published 2005).
Square brackets hold non-standard residues; d marks the D form. Peptide text beside a SMILES is read from it.

Tests used:
[1] = tested on: 51Cr-labeled P815S (HBsAg transfectant) target cells; test: HBsAg-specific CTL response of immunized mice (51Cr-release assay); assay type: in vivo, BALB/c mice; settings: for % Specific Lysis: s.c. in PBS, boost day 21, spleen cells day 42
C5aR = target: T1, C5aR (Homo sapiens, UniProt P21730); test: Binding affinity for C5aRs on human PMNs (125I-C5a competition)
T1 construct: endogenous in cells; host or cells: intact human PMNs (polymorphonuclear leukocytes)
T1 sequence (P21730 1-350): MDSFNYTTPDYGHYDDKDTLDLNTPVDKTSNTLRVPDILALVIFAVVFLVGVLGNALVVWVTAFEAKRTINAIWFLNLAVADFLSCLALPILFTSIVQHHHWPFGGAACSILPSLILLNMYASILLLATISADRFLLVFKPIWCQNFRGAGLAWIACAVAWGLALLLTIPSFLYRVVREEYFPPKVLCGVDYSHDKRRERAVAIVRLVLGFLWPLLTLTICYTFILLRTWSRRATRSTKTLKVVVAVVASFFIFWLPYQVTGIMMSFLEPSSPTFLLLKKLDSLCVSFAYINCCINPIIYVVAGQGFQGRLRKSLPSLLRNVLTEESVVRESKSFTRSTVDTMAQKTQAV
Method: Pharmacologic assays. C5a-like agonistic activity was assessed by the ability of the peptides to induce smooth muscle contraction of human umbilical artery and […] from human PMNs according to previously published methods (Sanderson et al., 1994, supra; Sanderson et al., J. Med. Chem. 38, 3669, 1995; Finch et al., J. Med. Chem. 40, 877, 1997). Full concentration-response curves were generated for individual peptides and natural C5a in each assay and the EC50 values (the concentration of peptide producing 50% of the maximal response to each peptide) were calculated. pD2 transforms [−log EC50 (M)] were calculated for each concentration-response curve and reported as the mean±SE. Peptide binding affinity to the C5aR was evaluated on intact human PMNs by a competition assay using ^125I-C5a according to previously described methods (Sanderson et al., 1995, supra; Finch et al., 1997, supra). Statistical analysis of the values obtained from pharmacologic assays was performed using one-way analysis of variance (ANOVA).

[2] = tested on: immunizing peptide and free peptides; test: ELISA of sera from mice immunized with HBsAg CTL epitope-C5a agonist constructs; assay type: in vivo; settings: 1:50 dilution of the serum
Method: Immunization protocols. Groups of six to eight BALB/c mice were given bilateral s.c. injections in the inguinal area with (100 μl each side) of a PBS solution containing 50-100 μg of the peptides. Booster injections were given s.c. in the inguinal region at 21-day intervals. Sera for Ab analysis were obtained by retro-orbital bleeds of mice under CO2 narcosis.
Antibodies to the HBsAg CTL epitope or the C5a agonist are not produced by immunization with the HBsAg CTL epitope-C5a agonist constructs. […] Thus, it was of interest to determine whether sera from mice immunized with the control peptides and epitope-C5a agonist constructs contained antibody directed against any of the peptides. […] (SEQ ID NO: 12), […]

human umbilical artery = test: Smooth muscle contraction of human umbilical artery; assay type: cell-based
Method: (§1) Pharmacologic assays. […] Statistical analysis of the values obtained from pharmacologic assays was performed using one-way analysis of variance (ANOVA).

human PMNs = test: MPO release from human PMNs; assay type: cell-based
Method: as §1

Compound: CC[C@H](C)[C@H](N)C(=O)N1CCC[C@H]1C(=O)N[C@@H](CCC(N)=O)C(=O)N[C@@H](CO)C(=O)N[C@@H](CC(C)C)C(=O)N[C@@H](CC(=O)O)C(=O)N[C@@H](CO)C(=O)N[C@@H](Cc1c[nH]c2ccccc12)C(=O)N[C@@H](Cc1c[nH]c2ccccc12)C(=O)N[C@H](C(=O)N[C@@H](CO)C(=O)N[C@@H](CC(C)C)C(=O)N[C@@H](CCCNC(=N)N)C(=O)N[C@@H](CCCNC(=N)N)C(=O)N[C@@H](Cc1ccc(O)cc1)C(=O)N[C@@H](CO)C(=O)N[C@@H](Cc1ccccc1)C(=O)N[C@@H](CCCCN)C(=O)N1CCC[C@H]1C(=O)N[C@@H](CCSC)C(=O)N1CCC[C@H]1C(=O)N[C@@H](CC(C)C)C(=O)N[C@H](C)C(=O)N[C@@H](CCCNC(=N)N)C(=O)O)[C@@H](C)O (H-IPQSLDSWWTSLRRYSFKPMPL[dA]R-OH; N-terminus assumed)
- % Specific Lysis ([1]; Effector:Target Ratio 6.25:1): 9%
- % Specific Lysis ([1]; Effector:Target Ratio 12.5:1): 14%
- % Specific Lysis ([1]; Effector:Target Ratio 25:1): 23%
- % Specific Lysis ([1]; Effector:Target Ratio 50:1): 32%
- antigen-specific CTL response ([1]; three s.c. injections of 50 μg at 21 day intervals, no added adjuvant): generated an antigen-specific CTL response
- EC50 (C5aR): 416 nM
- IC50 (C5aR): 417 nM
- serum binding to the free C5a agonist and CTL epitope peptides (ELISA) [2]: did not bind the free peptides
- EC50 (human umbilical artery; concentration resulting in 50% maximum contraction): 161 nM
- pD2 ± SE (human umbilical artery; −log EC50 (M), mean ± SE, n 3): 6.79 ± 0.31
- EC50 (human PMNs; concentration resulting in 50% maximum release of myeloperoxidase): 540 nM
- pD2 ± SE (human PMNs; −log EC50 (M), mean ± SE, n 3): 6.27 ± 0.29
